From patent US9359451B2, “Methods and compositions for treating trauma-hemorrhage using estrogen and derivatives thereof” (THE UAB RESEARCH FOUNDATION, priority 2012, dated 2016)
“Also recorded” adds a separate entry of the source.

What was measured:
[1] = test system: iNOS, nitrotyrosine, COX-2, Bax and Bcl-2; assay: Spinal cord injury: immunohistochemical localization of nitrotyrosine, iNOS, COX-2, Bax and Bcl-2; type: in vivo, mouse; conditions: 24 h after SCI; ICI 182,780: co-administered with 17β-estradiol
Procedure: Mice were anaesthetized using chloral hydrate (400 mg/kg body weight) (Genovese 2006). A longitudinal incision was made on the midline of the back, exposing the paravertebral muscles. These muscles were dissected away exposing T5-T8 vertebrae. The spinal cord was exposed via a four-level T6-T7 laminectomy and SCI was produced by extradural compression using an aneurysm clip with a closing force of 24 g. Following surgery, 1 ml of saline was administered subcutaneously in order to replace the blood volume lost during surgery. During the surgery and recovery from anesthesia, the mice were placed on a warm heating pad and covered with a warm towel. […] Food and water were provided to the mice ad libitum. During this time period, the animals' bladders were manually voided twice a day until the mice were able to regain normal bladder function. In all injured groups, the spinal cord was compressed for 1 min. Sham-injured animals were only subjected to laminectomy. Mice were randomly allocated into the following groups: (i) saline+SCI group, mice received saline subcutaneously and were subjected to SCI (n=40); […] (v) saline+sham group, mice were subjected to the surgical procedures as above group except that the aneurysm clip was not applied (n=40); […] In the experiments regarding the motor score, the animals from all the experimental groups were observed and treated daily for 9 days after SCI. At different time points (see FIG. 30), the mice (n=10 from each group for each of the 3 time points) were sacrificed in order to evaluate the various parameters as described below. […] After deparaffinization, endogenous peroxidase was quenched with 0.3% (v/v) hydrogen peroxide in 60% (v/v) methanol for 30 min. […] Non-specific adsorption was minimized by incubating the section in 2% (v/v) normal goat serum in PBS for 20 min. Endogenous biotin or avidin binding sites were blocked by sequential incubation for 15 min with biotin and avidin (DBA), respectively. […] Sections were washed with PBS, and incubated with secondary antibody. Specific labeling was detected with a biotin-conjugated goat anti-rabbit IgG and avidin-biotin peroxidase complex (DBA) and counterstained with nuclear fast red. To verify the binding specificity for nitrotyrosine, iNOS, COX-2, Bax, and Bcl-2, some sections were also incubated with only the primary antibody (no secondary) or with only the secondary antibody (no primary). […] Immunocytochemistry photographs (n=5) were assessed by densitometry as previously described (Shea 1994) by using Imaging Densitometer (AxioVision, Zeiss, Milan, Italy) and a computer program.

Bax and Bcl-2 = assay: Spinal cord injury: Western blot analysis for Bax and Bcl-2; type: in vivo, mouse; conditions: 24 h after SCI; ICI 182,780: co-administered with 17β-estradiol
Procedure: Mice were anaesthetized using chloral hydrate (400 mg/kg body weight) (Genovese 2006). A longitudinal incision was made on the midline of the back, exposing the paravertebral muscles. These muscles were dissected away exposing T5-T8 vertebrae. The spinal cord was exposed via a four-level T6-T7 laminectomy and SCI was produced by extradural compression using an aneurysm clip with a closing force of 24 g. Following surgery, 1 ml of saline was administered subcutaneously in order to replace the blood volume lost during surgery. During the surgery and recovery from anesthesia, the mice were placed on a warm heating pad and covered with a warm towel. […] Food and water were provided to the mice ad libitum. During this time period, the animals' bladders were manually voided twice a day until the mice were able to regain normal bladder function. In all injured groups, the spinal cord was compressed for 1 min. Sham-injured animals were only subjected to laminectomy. […] In the experiments regarding the motor score, the animals from all the experimental groups were observed and treated daily for 9 days after SCI. At different time points (see FIG. 30), the mice (n=10 from each group for each of the 3 time points) were sacrificed in order to evaluate the various parameters as described below. […] After 1 hour, tissue lysates were obtained by centrifugation at 100,000×g for 15 min at 4° C. Protein concentrations were estimated by the Bio-Rad protein assay (Bio-Rad Laboratories, Segrate, Milan, Italy) using BSA as standard. […] The blot was performed by transferring proteins from a slab gel to nitrocellulose membrane at 240 mA for 40 min at room temperature. […] The AffiniPure Goat Anti-Rabbit IgG coupled to peroxidase secondary antibody (1:2000; Jackson Immuno Research, Laboratories, Inc., CA, USA) was incubated for 1 hour at room temperature. Subsequently, the blot was extensively washed with PBS, developed using SuperSignal West Pico chemiluminescence Substrate (PIERCE, Milan, Italy), according to the manufacturer's instructions, and exposed to Kodak X-Omat film (Eastman Kodak Co., Rochester, N.Y.). α-Tubulin protein (Sigma; 1:1000) Western blot was performed to ensure equal sample loading. The protein bands of Bax (23˜kDa), or Bcl-2 (26˜kDa) on x-ray film were scanned and densitometrically analyzed with a model GS-700 imaging densitometer (Bio-Rad Laboratories). To ascertain that blots were loaded with equal amounts of protein lysates, they were also incubated in the presence of the antibody against α-tubulin protein (1:10,000 Sigma-Aldrich Corp.). The densitometric data for Western are normalized for loading control values.

Structure (SMILES) | immunohistochemical expression of Bax [1] | immunohistochemical expression of Bcl-2 [1] | immunostaining for COX-2 [1] | immunostaining for iNOS [1] | immunostaining for nitrotyrosine [1] | Bax levels (Western blot) (Bax and Bcl-2) | Bcl-2 expression (Western blot) (Bax and Bcl-2)
C[C@]12CC[C@@H]3c4ccc(O)cc4CC[C@H]3[C@@H]1CC[C@@H]2O [17β-estradiol] | reduced the degree of positive staining for Bax; also recorded: significantly inhibited the SCI-induced increase in Bax expression | attenuated the loss of positive staining for Bcl-2; also recorded: significantly prevents the loss of Bcl-2 expression | reduced the degree of positive staining for COX-2; also recorded: marked reduction in the immunostaining for COX-2 | reduced the degree of positive staining for iNOS; also recorded: marked reduction in the immunostaining | reduced the degree of positive staining for nitrotyrosine; also recorded: marked reduction in the immunostaining | prevented the SCI-induced Bax expression; also recorded: Bax band disappeared | significantly reduced the SCI-induced inhibition of Bcl-2 expression; also recorded: Bcl-2 band is more evident
C[C@]12CC[C@@H]3c4ccc(O)cc4C[C@@H](CCCCCCCCC[S+]([O-])CCCC(F)(F)C(F)(F)F)[C@H]3[C@@H]1CC[C@@H]2O (some centres unmarked) [ICI 182,780] | significantly blocked the effect of the 17β-estradiol | significantly blocked the effect of the 17β-estradiol | significantly blocked the effect of the 17β-estradiol | significantly blocked the effect of the 17β-estradiol | significantly blocked the effect of the 17β-estradiol | significantly blocked the effect of the 17β-estradiol; also recorded: Bax band is more evident in comparison with the band present in the tissue from 17β-estradiol-treated mice | significantly blocked the effect of the 17β-estradiol; also recorded: BCL2 band is less evident
